# Data as given in patent US11065231B2, “Compounds and methods for the targeted degradation of interleukin-1 receptor- associated kinase 4 polypeptides” (Arvinas Operations, Inc., priority 2017, dated 2021).
# Legend:
# IRAK4 [1] = biological target: T1, IRAK4 (Homo sapiens (Human), UniProt Q9NWZ3); assay: Biochemical Z'-Lyte FRET assay for IRAK4 kinase inhibition; settings: 2 nM enzyme, 1 mM ATP, 2 μM substrate
# Method: Biochemical Assay for IRAK4 Kinase Inhibition.
# A Z′-Lyte assay based on a fluorescence resonance energy transfer (FRET) readout was developed for measuring IRAK4-dependent phosphorylation of a FRET-peptide substrate as described by Thermo Fisher Scientific (Grand Island, N.Y.). At a starting concentration of 1.5 mM, the identified compounds were serially diluted with 100% dimethyl sulfoxide (DMSO) in 3-fold increments, into Greiner bio-one 96-well plates (cat. #: 650201, Greiner bio-one, Monroe, N.C.). Compounds were then transferred to intermediate Greiner bio-one 96-well plates and diluted 10-fold with Kinase assay buffer (25 mM HEPES, pH 7.5, 10 mM MgCl2, 10 mM MnCl2, 1 mM EGTA, and 0.01% Brij-35, 2 mM DTT). Three μL of the serially diluted compounds were then transferred in duplicate to low-volume 384-well black proxiplates (cat. #: 6008269; Perkin Elmer, Akron, Ohio), to give duplicate twelve-point concentration curves. Six μl of a 2.5× solution of IRAK4 enzyme (cat #: 40064, BPS Bioscience, San Diego, Calif.) in kinase buffer was added to each well, followed by a 10 minutes pre-incubation step. Reactions were initiated by adding 6 μl of a 2.5× substrate mix of ATP and Z′-Lyte Ser/Thr 7 peptide (cat. #: PV3180, Thermo Fisher Scientific, Grand Island, N.Y.) and proceeded at room temperature for 1 hour. The final concentration of key reagents in the 15 uL kinase reactions were 2 μM substrate, 2 nM enzyme, and 1 mM ATP, with dose responses starting at 30 μM compound. At the end of the kinase reactions, 5 μl of developing solution (as instructed in for cat. #: PV3180, Thermo Fisher Scientific, Grand Island, N.Y.) was added to each well and incubated at room temperature for 1 hour. All wells were read on an Envision 2105 Multilabel fluorescence plate reader (Perkin Elmer, Waltham, Mass.) at 400 nm excitation and 460 nm/530 nm emission. Plus and minus 100% inhibition controls were used to calculate percent inhibition and IC50 curves were generated using Graphpad Prism (La Jolla, Calif.).
# IRAK4 [2] = biological target: T1, IRAK4; assay: Western blot assay for assessing degradation of IRAK4 in MCF7 cells; type: cell-based; settings: Table 5, IRAK4 degradation, 24 hour incubation, read-out: IRAK4 DC50
# Method: Western Blot Assay for Assessing Degradation of IRAK4.
# MCF7 cells, purchased from ATCC (Manassas, Va.), were used at a passage range of 2-19. Cells were seeded at 50% confluency in 96-well plates at 180 μl/well in cell media (Dulbecco's Modified Eagle medium/nutrient F-12 Ham-10% Fetal Bovine Serum) and incubated overnight. The next morning, compounds were serially diluted and added (20 μl into 180 μl media) at a final DMSO concentration of 0.1%. Cells were rinsed with cell media and replaced with compounds in media, followed by incubation overnight. After a 24 hour incubation with compound, cell were harvested (90-100% confluent at harvest). Cells were then washed once with 100 μl of Dulbecco's hosphate-buffered saline and then lysed with 40 μl of lysis buffer (1×RIPA+HALT protease inhibitor+HALT phosphatase inhibitor) on ice for 10 minutes. Lysates were then cleaned by filtration in 1.2 µm filter plates followed by western blotting. For each sample, 30 μl of lysate were added to 10 μl of 4×LDS sample buffer, then denatured at 95° C. for 5 minutes in the thermal cycler and placed on ice. Fifteen μL of each sample were then loaded on 4-15% Tris/Glycine gels and run for 25 minutes at 250 (constant) volts in 1× Tris/Glycine buffer. Protein was transferred from gels to nitrocellulose using a BioRad Turbo dry-transfer unit with the Turbo/midi default program. All blots were rinsed with ddH2O and blocked for 1 hour at room temperature in 5% bovine serum albumin (BSA) in tris-buffered saline-Tween 20 (TBS-T) (0.1%) on rocker. Blots were exposed to primary antibody in 5% BSA in TBS-T (0.1%) overnight at 4° C. on rocker. Primary antibodies, diluted 1:1000 in […], were as follows: anti-IRAK4 (cat. #: ab119942, Abcam, Cambridge, Mass.), anti-IRAK1 (cat. #: CST 4504S, Cell Signaling Technology, Danvers, Mass.), and anti-Beta-actin (Cat. #: ab8227, Abcam, Cambridge, Mass.). Blots were then washed with TBS-T (0.1%) three times for 5 minutes on a rocker at room temperature. Secondary antibody (1:18,000 anti-rabbit-HRP and/or anti-mouse-HRP in 5% BSA in TBST (0.1%) was then added, and blots incubated at room temperature rocker for 1 hour. Blots were washed 3 times in TBS-T (0.1%) for 5 minutes at room temperature on the rocker. Signal was developed with Femto Max substrate for 5 minutes and blots read on a ChemiDoc. Percent degradation was assessed by comparing IRAK4 signal in compound vs. DMSO treated lysates.
# T1 sequence (Q9NWZ3 whole entry): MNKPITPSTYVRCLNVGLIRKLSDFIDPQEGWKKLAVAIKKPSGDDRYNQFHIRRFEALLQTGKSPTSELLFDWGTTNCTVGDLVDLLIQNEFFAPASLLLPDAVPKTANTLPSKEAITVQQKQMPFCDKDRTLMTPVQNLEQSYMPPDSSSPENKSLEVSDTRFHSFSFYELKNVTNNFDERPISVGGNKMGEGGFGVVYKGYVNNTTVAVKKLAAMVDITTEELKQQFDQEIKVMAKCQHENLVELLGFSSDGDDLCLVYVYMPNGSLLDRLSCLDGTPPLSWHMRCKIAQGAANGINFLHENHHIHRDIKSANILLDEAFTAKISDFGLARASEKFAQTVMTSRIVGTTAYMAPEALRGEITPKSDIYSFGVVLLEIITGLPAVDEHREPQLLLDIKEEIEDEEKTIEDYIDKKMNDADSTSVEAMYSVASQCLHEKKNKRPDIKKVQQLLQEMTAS
Structure (SMILES),IC50 (IRAK4 [1]) [µM],DC50 (IRAK4 [2]) [µM]
N#Cc1ccc2ncnc(N[C@H]3CC[C@H](N4CCN(S(=O)(=O)CCOCCOc5ccc6c(c5)C(=O)N(C5CCC(=O)NC5=O)C6=O)CC4)CC3)c2c1 (stereo partly shown) [compound 34],≥ 1,≥ 1
N#Cc1ccc2ncnc(N[C@H]3CC[C@@H](N4CCN(S(=O)(=O)CCOCCOc5ccc6c(c5)C(=O)N(C5CCC(=O)NC5=O)C6=O)CC4)CC3)c2c1 (stereo partly shown) [compound 35],≥ 1,≥ 1
N#Cc1ccc2ncnc(N[C@H]3CC[C@H](N4CCN(S(=O)(=O)CCOCCOCCOc5ccc6c(c5)C(=O)N(C5CCC(=O)NC5=O)C6=O)CC4)CC3)c2c1 (stereo partly shown) [compound 36],≥ 1,≥ 1
"O=C1CCC(N2C(=O)c3ccc(OCCOCCOC[C@H]4CC[C@@H](n5c(NC(=O)c6cccc(C(F)(F)F)c6)nc6cc(CN7CCCCC7)ccc65)CC4)cc3C2=O)C(=O)N1 (stereo partly shown) [compound 44, N-(1-((1s,4s)-4-((2-(2-((2-(2,6-dioxopiperidin-3-yl)-1,3-dioxoisoindolin-5-yl)oxy)ethoxy)ethoxy)methyl)cyclohexyl)-5-(piperidin-1-ylmethyl)-1H-benzo[d]imidazol-2-yl)-3-(trifluoromethyl)benzamide]",≥ 1,≥ 1
"O=C1CCC(N2C(=O)c3ccc(OCCOCCOC[C@H]4CC[C@@H](n5c(NC(=O)c6cccc(C(F)(F)F)c6)nc6cc(F)ccc65)CC4)cc3C2=O)C(=O)N1 (stereo partly shown) [compound 46, N-(1-((1s,4s)-4-((2-(2-((2-(2,6-dioxopiperidin-3-yl)-1,3-dioxoisoindolin-5-yl)oxy)ethoxy)ethoxy)methyl)cyclohexyl)-5-fluoro-1H-benzo[d]imidazol-2-yl)-3-(trifluoromethyl)benzamide]",≥ 1,≥ 1
"O=C1CCC(N2C(=O)c3ccc(OCCOCCOCCOC[C@H]4CC[C@@H](n5c(NC(=O)c6cccc(C(F)(F)F)c6)nc6cc(F)ccc65)CC4)cc3C2=O)C(=O)N1 (stereo partly shown) [compound 47, N-(1-((1s,4s)-4-((2-(2-(2-((2-(2,6-dioxopiperidin-3-yl)-1,3-dioxoisoindolin-5-yl)oxy)ethoxy)ethoxy)ethoxy)methyl)cyclohexyl)-5-fluoro-1H-benzo[d]imidazol-2-yl)-3-(trifluoromethyl)benzamide]",≥ 1,≥ 1
"O=C1CCC(N2C(=O)c3ccc(OCCOCCOCCOCCOC[C@H]4CC[C@@H](n5c(NC(=O)c6cccc(C(F)(F)F)c6)nc6cc(F)ccc65)CC4)cc3C2=O)C(=O)N1 (stereo partly shown) [compound 48, N-(1-((1s,4s)-4-(13-((2-(2,6-dioxopiperidin-3-yl)-1,3-dioxoisoindolin-5-yl)oxy)-2,5,8,11-tetraoxatridecyl)cyclohexyl)-5-fluoro-1H-benzo[d]imidazol-2-yl)-3-(trifluoromethyl)benzamide]",≥ 1,≥ 1

# Second part, the compound after the results:
IC50 (IRAK4 [1]) [µM],DC50 (IRAK4 [2]) [µM],Structure (SMILES)
≥ 1,≥ 1,N#Cc1ccc2ncnc(N[C@H]3CC[C@H](N4CCN(CCOCCOCCOCCOc5ccc6c(c5)C(=O)N(C5CCC(=O)NC5=O)C6=O)CC4)CC3)c2c1 (stereo partly shown) [compound 32]
≥ 1,≥ 1,N#Cc1ccc2ncnc(N[C@H]3CC[C@H](N4CCN(CCOCCOCCOCCOCCOc5ccc6c(c5)C(=O)N(C5CCC(=O)NC5=O)C6=O)CC4)CC3)c2c1 (stereo partly shown) [compound 33]
≥ 1,≥ 1,N#Cc1ccc2ncnc(N[C@H]3CC[C@H](N4CCN(S(=O)(=O)CCOCCOCCOCCOCCOc5ccc6c(c5)C(=O)N(C5CCC(=O)NC5=O)C6=O)CC4)CC3)c2c1 (stereo partly shown) [compound 40]
≥ 1,≥ 1,N#Cc1ccc2ncnc(N[C@H]3CC[C@@H](N4CCN(S(=O)(=O)CCOCCOCCOCCOCCOc5ccc6c(c5)C(=O)N(C5CCC(=O)NC5=O)C6=O)CC4)CC3)c2c1 (stereo partly shown) [compound 41]
